According to US10899754B2, “Modulators of indoleamine 2,3-dioxygenase” (GLAXOSMITHKLINE INTELLECTUAL PROPERTY DEVELOPMENT LIMITED, priority 2016, dated 2021):

Assays:
[1] = system: human peripheral blood mononuclear cells (PBMC); assay: PBMC cytotoxicity assay (CellTiter-Glo); format: cell-based; settings: 2 days, pCC50
Protocol: (§1) Compounds of the present invention were tested via high-throughput cellular assays utilizing detection of kynurenine via mass spectrometry and cytotoxicity as end-points. For the mass spectrometry and cytotoxicity assays, human peripheral blood mononuclear cells (PBMC) (PB003F; AllCells®, Alameda, Calif.) were stimulated with human interferon-γ (IFN-γ) (Sigma-Aldrich Corporation, St. Louis, Mo.) and lipopolysaccharide from Salmonella minnesota (LPS) (Invivogen, San Diego, Calif.) to induce the expression of indoleamine 2, 3-dioxygenase (IDO1). Compounds with IDO1 inhibitory properties decreased the amount of kynurenine produced by the cells via the tryptophan catabolic pathway. Cellular toxicity due to the effect of compound treatment was measured using CellTiter-Glo® reagent (CTG) (Promega Corporation, Madison, Wis.), which is based on luminescent detection of ATP, an indicator of metabolically active cells.
(§2) In preparation for the assays, test compounds were serially diluted 3-fold in DMSO from a typical top concentration of 1 mM or 5 mM and plated at 0.5 μL in 384-well, polystyrene, clear bottom, tissue culture treated plates with lids (Greiner Bio-One, Kremsmünster, Austria) to generate 11-point dose response curves. Low control wells (0% kynurenine or 100% cytotoxicity) contained either 0.5 μL of DMSO in the presence of unstimulated (−IFN-γ/−LPS) PBMCs for the mass spectrometry assay or 0.5 μL of DMSO in the absence of cells for the cytotoxicity assay, and high control wells (100% kynurenine or 0% cytotoxicity) contained 0.5 μL of DMSO in the presence of stimulated (+IFN-γ/+LPS) PBMCs for both the mass spectrometry and cytotoxicity assays.
(§3) Frozen stocks of PBMCs were washed and recovered in RPMI 1640 medium (Thermo Fisher Scientific, Inc., Waltham, Mass.) supplemented with 10% v/v heat-inactivated fetal bovine serum (FBS) (Thermo Fisher Scientific, Inc., Waltham, Mass.), and 1× penicillin-streptomycin antibiotic solution (Thermo Fisher Scientific, Inc., Waltham, Mass.). The cells were diluted to 1,000,000 cells/mL in the supplemented RPMI 1640 medium. 50 μL of either the cell suspension, for the mass spectrometry assay, or medium alone, for the cytotoxicity assay, were added to the low control wells, on the previously prepared 384-well compound plates, resulting in 50,000 cells/well or 0 cells/well respectively. IFN-γ and LPS were added to the remaining cell suspension at final concentrations of 100 ng/ml and 50 ng/ml respectively, and 50 μL of the stimulated cells were added to all remaining wells on the 384-well compound plates. The plates, with lids, were then placed in a 37° C., 5% CO2 humidified incubator for 2 days.
(§4) Following incubation, the 384-well plates were removed from the incubator and allowed to equilibrate to room temperature for 30 minutes. For the cytotoxicity assay, CellTiter-Glo® was prepared according to the manufacturer's instructions, and 40 μL were added to each plate well. After a twenty minute incubation at room temperature, luminescence was read on an EnVision® Multilabel Reader (PerkinElmer Inc., Waltham, Mass.). For the mass spectrometry assay, 10 μL of supernatant from each well of the compound-treated plates were added to 40 μL of acetonitrile, containing 10 μM of an internal standard for normalization, in 384-well, polypropylene, V-bottom plates (Greiner Bio-One, Kremsmünster, Austria) to extract the organic analytes. Following centrifugation at 2000 rpm for 10 minutes, 10 μL from each well of the acetonitrile extraction plates were added to 90 μL of sterile, distilled H2O in 384-well, polypropylene, V-bottom plates for analysis of kynurenine and the internal standard on the RapidFire 300 (Agilent Technologies, Santa Clara, Calif.) and 4000 QTRAP MS (SCIEX, Framingham, Mass.). MS data were integrated using Agilent Technologies' RapidFire Integrator software, and data were normalized for analysis as a ratio of kynurenine to the internal standard. […]

[2] = target: indoleamine 2, 3-dioxygenase (IDO1) (Homo sapiens, UniProt P14902); assay: IDO1 PBMC RapidFire MS assay (kynurenine detection by mass spectrometry); format: cell-based; parameters: to induce the expression of indoleamine 2, 3-dioxygenase (IDO1); host or cells: human PBMC stimulated with IFN-gamma and LPS; settings: human PBMC stimulated with IFN-γ and LPS, 2 days, pIC50, read-out: PBMC PXC50 (converted)
Protocol: IDO1 PBMC RapidFire MS Assay
as §1, §2, §3, §4

indoleamine 2, 3-dioxygenase (IDO1), sequence (P14902 whole entry): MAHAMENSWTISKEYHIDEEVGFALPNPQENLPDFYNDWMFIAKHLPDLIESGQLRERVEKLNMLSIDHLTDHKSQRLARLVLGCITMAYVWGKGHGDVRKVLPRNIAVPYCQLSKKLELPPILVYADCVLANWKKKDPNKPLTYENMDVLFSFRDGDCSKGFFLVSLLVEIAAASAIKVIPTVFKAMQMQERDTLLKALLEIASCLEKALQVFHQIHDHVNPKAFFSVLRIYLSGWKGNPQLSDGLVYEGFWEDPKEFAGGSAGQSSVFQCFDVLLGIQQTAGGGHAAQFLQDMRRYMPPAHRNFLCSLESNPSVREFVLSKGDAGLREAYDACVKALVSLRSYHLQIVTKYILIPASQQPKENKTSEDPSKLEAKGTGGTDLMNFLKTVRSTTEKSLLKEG

| SMILES | PBMC TOX PXC50 [1] | IC50 [2] [nM] |
| --- | --- | --- |
| CC(C)CN(c1ccc([C@H](C)CC(=O)O)cc1Nc1nc(C(F)(F)F)ns1)C1CCN(C(=O)OC(C)(C)C)CC1 [Example 69, (R)-3-(4-((1-(tert-butoxycarbonyl)piperidin-4-yl) (isobutyl)amino)-3-((3-(trifluoromethyl)-1,2,4-thiadiazol-5-yl)amino)phenyl)butanoic Acid] | <5 | 2.51 |
| COC(=O)N1CCC(N(CC(C)C)c2ccc([C@H](C)CC(=O)O)cc2Nc2nc(C(F)(F)F)ns2)CC1 [Example 66] | 5.2 | 1.58 |
| CC(C)CN(CC(C)C)c1ccc([C@H](C)CC(=O)O)cc1Nc1ccc(=O)[nH]c1 [example 217, (3R)-3-{4-[bis(2-methylpropyl)amino]-3-[(6-oxo-1,6-dihydropyridin-3-yl)amino]phenyl}butanoic acid] | <5 | 3980 |
| CO[C@H]1CC[C@@H](N(CC(C)C)c2ccc([C@H](C)CC(=O)O)cc2Nc2ccc(C#N)cn2)CC1 [Example 53, (R)-3-(3-((5-cyanopyridin-2-yl)amino)-4-(isobutyl((1s,4S)-4-methoxycyclohexyl)amino)phenyl)butanoic Acid] | <5 | 1.58 |
| CC(C)CN(c1ccc(-c2ccccc2C(=O)O)cc1Nc1nc(C(F)(F)F)ns1)C1CC2(C1)CN(C(=O)OC(C)(C)C)C2 [Example 97, 4′-((2-(tert-butoxycarbonyl)-2-azaspiro[3.3]heptan-6-yl) (isobutyl)amino)-3′-((3-(trifluoromethyl)-1,2,4-thiadiazol-5-yl)amino)-[1,1′-biphenyl]-2-carboxylic Acid] | <5 | 6.31 |
| COCCC(=O)N1CCC(N(CC(C)C)c2ccc([C@H](C)CC(=O)O)cc2Nc2nc(C(F)(F)F)ns2)CC1 [Example 68, (R)-3-(4-(isobutyl(1-(3-methoxypropanoyl)piperidin-4-yl)amino)-3-((3-(trifluoromethyl)-1,2,4-thiadiazol-5-yl)amino)phenyl)butanoic Acid] | <5 | 2 |
| CC(C)CN(c1ccc([C@H](C)CC(=O)O)cc1Nc1ncc(C(N)=O)cn1)C1CCOCC1 [example 248, (3R)-3-{3-[(5-carbamoylpyrimidin-2-yl)amino]-4-[(2-methylpropyl)(oxan-4-yl)amino]phenyl}butanoic acid] | <5 | > 10000 |
| CC(C)CN(c1ccc([C@H](C)CC(=O)O)cc1Nc1nc(C(=O)NC2CC2)c[nH]1)C1CCOCC1 [example 236, (3R)-3-(3-{[4-(cyclopropylcarbamoyl)-1H-imidazol-2-yl]amino}-4-[(2-methylpropyl)(oxan-4-yl)amino]phenyl)butanoic acid] | <5 | > 10000 |
| COC(=O)c1c[nH]c(Nc2cc([C@H](C)CC(=O)O)ccc2N(CC(C)C)C2CCOCC2)n1 [Example 29, (R)-3-(4-(isobutyl(tetrahydro-2H-pyran-4-yl)amino)-3-((4-(methoxycarbonyl)-1H-imidazol-2-yl)amino)phenyl)butanoic acid] | <5 | 6.31 |
| CC(C)CN(c1ccc(-c2ccccc2C(=O)O)cc1Nc1nc(C#N)ns1)C1CCCCC1 [Example 89, 3′-((3-cyano-1,2,4-thiadiazol-5-yl)amino)-4′-(cyclohexyl(isobutyl)amino)-[1,1′-biphenyl]-2-carboxylic Acid] | <5 | 3.98 |
| CC(C)CN(c1ccc([C@H](C)CC(=O)O)cc1Nc1n[nH]c(C#N)n1)[C@H]1CC[C@H](O)CC1 (racemic) [example 224, (3RS)-3-{3-[(5-cyano-1H-1,2,4-triazol-3-yl)amino]-4-[(2-methylpropyl)[(1rs&,4rs&)-4-hydroxycyclohexyl]amino]phenyl}butanoic acid] | <5 | 1580 |
| CC(C)CN(c1ccc([C@H](C)CC(=O)O)cc1Nc1nc(C(F)(F)F)ns1)C1CCN(c2nc(C(F)(F)F)ns2)CC1 [Example 95, (R)-3-(4-(isobutyl(1-(3-(trifluoromethyl)-1,2,4-thiadiazol-5-yl)piperidin-4-yl)amino)-3-((3-(trifluoromethyl)-1,2,4-thiadiazol-5-yl)amino)phenyl)butanoic Acid] | <5 | 1.58 |
| CC(C)CN(c1ccc([C@H](C)Cc2nnn[nH]2)cc1Nc1nc(C(F)(F)F)ns1)C1CCOCC1 [Example 99, (R)-4-(1-(1H-tetrazol-5-yl)propan-2-yl)-N^1-isobutyl-N^1-(tetrahydro-2H-pyran-4-yl)-N^2-(3-(trifluoromethyl)-1,2,4-thiadiazol-5-yl)benzene-1,2-diamine] | <5 | 1.26 |
| CC(C)CN(c1ccc([C@H](C)CC(=O)O)cc1N(c1cnc(C(=O)O)nc1)c1cnc(C(=O)O)nc1)C1CCOCC1 [example 265, 5-({5-[(2R)-1-carboxypropan-2-yl]-2-[(2-methylpropyl)(oxan-4-yl)amino]phenyl}(2-carboxypyrimidin-5-yl)amino)pyrimidine-2-carboxylic acid] | <5 | > 10000 |
| CC(C)CN(c1ccc([C@H](C)CC(=O)NS(=O)(=O)N(C)C)cc1Nc1nc(C(F)(F)F)ns1)C1CCOCC1 [Example 108, (R)—N—(N,N-Dimethylsulfamoyl)-3-(4-(isobutyl(tetrahydro-2H-pyran-4-yl)amino)-3-((3-(trifluoromethyl)-1,2,4-thiadiazol-5-yl)amino)phenyl)butanamide] | <5 | 2.51 |
| CNC(=O)c1nnc(Nc2cc([C@H](C)CC(=O)O)ccc2N(CC(C)C)C2CCOCC2)s1 [example 257, (3R)-3-(3-{[5-(methylcarbamoyl)-1,3,4-thiadiazol-2-yl]amino}-4-[(2-methylpropyl)(oxan-4-yl)amino]phenyl)butanoic acid] | <5 | 31.6 |
| CO[C@H]1CC[C@@H](N(CC(C)C)c2ccc([C@H](C)CC(=O)O)cc2Nc2nc(C(F)(F)F)ns2)CC1 [Example 43, (R)-3-(4-(isobutyl((1s,4S)-4-methoxycyclohexyl)amino)-3-((3-(trifluoromethyl)-1,2,4-thiadiazol-5-yl)amino)phenyl)butanoic Acid] | <5 | 0.631 |
| CO[C@H](C)CN(CC(C)C)c1ccc([C@H](C)CC(=O)O)cc1Nc1nc(C(F)(F)F)ns1 [Example 96, (R)-3-(4-(isobutyl((R)-2-methoxypropyl)amino)-3-((3-(trifluoromethyl)-1,2,4-thiadiazol-5-yl)amino)phenyl)butanoic Acid] | <5 | 10 |
| CC(C)CN(c1ccc([C@H](C)CC(=O)O)cc1Nc1nc(Cl)ns1)C1CCOCC1 [Example 25, (R)-3-(3-((3-chloro-1,2,4-thiadiazol-5-yl)amino)-4-(isobutyl(tetrahydro-2H-pyran-4-yl)amino)phenyl)butanoic Acid] | <5 | 3.16 |
| CC(C)CN(c1ccc([C@H](C)CC(=O)O)cc1Nc1nc(Cl)ns1)C1CC2(CCC2)C1 [Example 98, (R)-3-(3-((3-chloro-1,2,4-thiadiazol-5-yl)amino)-4-(isobutyl(spiro[3.3]heptan-2-yl)amino)phenyl)butanoic Acid] | <5 | 7.94 |
